For orientation: IC50 means the midpoint of a concentration-inhibition curve. Low values mean greater potency in that assay, high ones weaker potency in that assay.

These results are taken from patent US6906097B2, “8-azaprostaglandin analogs as agents for lowering intraocular pressure” (Allergan, Inc., priority 2002, dated 2005).

The test addresses T1, hEP3D (Homo sapiens, UniProt P43115).
T1 construct: expressed in transfected cells; host or cells: COS-7, transient transfection, plasma membrane fraction
T1 sequence (P43115 1-374 isoform P43115-4): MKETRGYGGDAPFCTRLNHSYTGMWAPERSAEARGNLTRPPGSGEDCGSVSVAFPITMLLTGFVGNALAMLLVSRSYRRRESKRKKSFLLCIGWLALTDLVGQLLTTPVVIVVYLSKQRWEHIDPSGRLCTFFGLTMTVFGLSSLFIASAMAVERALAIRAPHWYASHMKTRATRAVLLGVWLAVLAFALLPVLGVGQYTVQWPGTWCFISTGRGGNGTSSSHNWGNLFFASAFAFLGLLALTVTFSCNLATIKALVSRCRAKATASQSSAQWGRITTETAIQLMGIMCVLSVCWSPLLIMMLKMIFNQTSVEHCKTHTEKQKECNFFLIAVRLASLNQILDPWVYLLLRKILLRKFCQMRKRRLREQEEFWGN
Briefly: Radioligand binding, hEP3D. The note with it: [3H]PGE2 competition. The method, then:
For radioligand binding on the transient transfectants, plasma membrane fraction preparation was as follows. COS-7 cells were washed with TME buffer, scraped from the bottom of the flasks, and homogenized for 30 sec using a Brinkman PT 10/35 polytron. TME buffer was added to achieve a final 40 ml volume in the centrifuge tubes. The composition of TME is […]; 10N HCl is added to achieve a pH of 7.4.
The cell homogenate was centrifuged at 19000 rpm for 20 min at 4° C. using a Beckman Ti-60 rotor. The resultant pellet was resuspended in TME buffer to give a final 1 mg/ml protein concentration, as determined by Biorad assay. Radioligand binding assays were performed in a 200 μl volume.
The binding of [^3H] PGE2 (specific activity 165 […]) at EP3D, receptors and [^3H]-SQ29548 (specific activity 41.5 Ci mmol^−1) at TP receptors were determined in duplicate in at least three separate experiments. Radiolabeled PGE2 was purchased from Amersham, radiolabeled SQ29548 was purchased from New England Nuclear. […] Competition studies were performed using a final concentration of 2.5 or 5 nM [^3H]-PGE2, or 10 nM [^3H]-SQ 29548 and non-specific binding determined with 10 μM of the respective unlabeled prostanoid. […]

Turning to `O=C(O)CCCCCCN1C(=O)CC[C@@H]1CCC(O)Cc1cccc(Cl)c1` (stereo partly drawn) [Example 1, 7-[2S-[3R-Hydroxy-4-(chloro-phenyl)-butyl]-5-oxo-pyrrolidin-1-yl]-heptanoic acid], the IC50 is 0.012 µM.
